Holding throughout (test): growth of human tumour cells (NCI), 48 h
For assay [1], the system named is UACC-62 melanoma.
Assay [2] deals with OVCAR-4 ovarian.
Assay [3] relates to HCT-15 colon.
The subject of assay [4] is SK-MEL-28 melanoma.
The subject of assay [5] is U251 CNS.
For assay [6], the system named is OVCAR-8 ovarian.
Assay [7] deals with SNB-19 CNS.
The subject of assay [8] is MCF7 breast.
The test system of assay [9] is SF-539 CNS.
In assay [10] the test system is SN12C renal.

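Dose response: 5 concentrations. Exposure: 48 h. Format: 96-well plates. Endpoint: linear interpolation; highest concentration if not reached. GI50 marks 50% less growth. The concentration for full growth arrest is given as TGI.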

As to `COc1cc(-c2n/c(=C\c3c(O)[nH]c4ccccc34)cc3c2=Nc2ccccc2-3)cc(OC)c1OC`, the GI50 was 0.707 µM in assay [1]; 0.506 µM in [2]; 1.72 µM in [3]; 6.43 µM in [4]; 0.333 µM in assay [5]; 2.53 µM in assay [6]. Also, the GI50 in assay [7] was 2.68 µM; in assay [8], 0.363 µM; in [9], 0.783 µM; in assay [10] it was 0.523 µM. The TGI in [1] was > 100 µM; in assay [2], > 100 µM; in assay [3], > 100 µM; in assay [4], > 100 µM; in assay [5], 12.1 µM; in [6], > 100 µM. Besides, the TGI in assay [7] was > 100 µM; in assay [8], > 23.2 µM; in assay [9] it was 7.83 µM; in [10], > 100 µM.
As for `c1cncc(CNc2ncn[nH]2)c1`, the TGI in assay [1], in [2], in assay [3], in [4], in [5] and in assay [6] was > 100 µM throughout. For the same compound, the TGI in assay [7], in assay [8], in assay [9] and in [10] was > 100 µM in each case.
As to `O=[N+]([O-])c1ccc(N=Nc2c(O)[nH]c3ccccc23)cc1`, the TGI in [1] is > 100 µM; in [2] it was 57.6 µM; in assay [3] it was > 100 µM; in [4], > 100 µM; in assay [5], > 100 µM; in assay [6] it was 48.3 µM. In addition, the TGI is > 100 µM in assay [7], > 100 µM in assay [8], 9.36 µM in [9] and > 100 µM in assay [10].
Turning to `COC(=O)[C@]12CC=C3O[C@@H]4OC5(CCCCC5)O[C@@H]4[C@H]3C1C(=O)C=CC2=O` (some centres undefined), the TGI amounted to 30.2 µM in assay [1]; 31.4 µM in assay [2]; 34.2 µM in [3]; 34.2 µM in assay [4]; 36.1 µM in [5]; 44.1 µM in assay [6]. Further, the TGI in assay [7] was found to be 66.2 µM; in assay [8], 35.5 µM; in assay [9], 34.8 µM; in [10] it was 35.1 µM.
In the case of `Cc1cc2nc3c4cccc(O)c4n(CCN(C)C)c3nc2cc1C`, the GI50 in assay [1] was 1.73 µM; in [2] it was 2.89 µM; in assay [3], 1.29 µM; in assay [4], 1.78 µM; in assay [5], 2.05 µM; in assay [6], 1.83 µM. Moreover, the GI50 is 2.62 µM in [7], 1.36 µM in assay [8], 1.51 µM in [9] and 2.28 µM in assay [10]. Moreover, the TGI stood at 3.73 µM in assay [1]; 11.9 µM in assay [2]; 3.79 µM in [3]; 3.34 µM in assay [4]; 7.72 µM in assay [5]; 10.3 µM in assay [6]. Besides, the TGI was found to be 26.3 µM in assay [7], 5.08 µM in [8], 3.23 µM in assay [9] and 13.8 µM in assay [10].
Consider `Cc1cn2c(=O)n(c1=O)Cc1ccccc1C2`, for which the GI50 in assay [1] was 63.1 µM; in assay [2], > 100 µM; in [3], > 100 µM; in [4], > 100 µM; in [5], > 100 µM; in assay [6], 46.6 µM. Further, the GI50 in assay [7] was > 100 µM; in assay [8], 35.1 µM; in [9] it was > 100 µM; in [10] it was > 100 µM. For the same compound, the TGI in [1], in [2], in [3], in assay [4], in assay [5] and in assay [6] was > 100 µM in each case. Moreover, the TGI in assay [7], in assay [8], in assay [9] and in assay [10] was > 100 µM each time.
Regarding `CN1C(=O)C(c2c[nH]c3ccccc23)=C(c2c(-c3c[nH]c4ccccc34)[nH]c3ccccc23)C1=O`, the GI50 in [1] is 2.91 µM; in assay [2] it was 15.5 µM; in assay [3], 3.24 µM; in assay [4], 10.4 µM; in assay [5], 3 µM; in assay [6], 3.2 µM. In addition, the GI50 in assay [7] was 3.95 µM; in assay [8], 2.27 µM; in assay [9] it was 1.81 µM; in assay [10], 2.64 µM. The TGI was 5.54 µM in assay [1]; > 100 µM in assay [2]; 12.3 µM in [3]; 31.4 µM in [4]; 9.61 µM in [5]; 11 µM in assay [6]. Moreover, the TGI in assay [7] worked out at 18.8 µM; in assay [8], 6.26 µM; in [9], 3.67 µM.
For `Oc1ccc(CN(Cc2ccc(C(F)(F)F)cc2)Cc2ccc(O)c3ncccc23)c2cccnc12`, the GI50 is 0.0395 µM in assay [1]; 0.0429 µM in [2]; 0.024 µM in [3]; 0.341 µM in assay [4]; < 0.01 µM in assay [5]; < 0.0142 µM in assay [6]. The GI50 was 0.0217 µM in assay [7], < 0.01 µM in assay [8], 0.0465 µM in assay [9] and 0.0201 µM in [10]. Besides, the TGI in assay [1] is 0.927 µM; in [2], > 100 µM; in assay [3] it was > 100 µM; in assay [4], > 100 µM; in [5] it was > 100 µM; in assay [6] it was > 100 µM. Moreover, the TGI is > 100 µM in assay [7], > 100 µM in assay [8], > 64.1 µM in [9] and > 100 µM in assay [10].
`CO/C(=N\N=C\c1cccc(C(F)(F)F)c1)c1ccncc1`: the TGI in assay [1] was > 100 µM; in [2], > 100 µM; in assay [3], 68.2 µM; in assay [4], > 100 µM; in assay [5] it was 80.2 µM; in [6], > 100 µM. The TGI in [7] is 54.6 µM; in assay [8], > 100 µM; in assay [9] it was 37.1 µM; in assay [10], > 100 µM. Also, the GI50 in assay [3] was 4.54 µM; in assay [6], 17.4 µM; in assay [7], 14.2 µM; in assay [8] it was 7.33 µM; in assay [10] it was 16.7 µM.

For the origin of these results see PubChem BioAssay (NCI).
